Results on 9 compounds are retold here after the NIST ThermoML archive (doi:10.1016/j.tca.2010.02.010).

Data set [1] in a line: xn = mol fraction of the nth substance listed. The following applies: 298.15 K, 101 kPa, Liquid, Vibrating tube method.
The conditions of data set [2]: 298.15 K; 101 kPa; Liquid; Vibrating tube method.

± gives the expanded uncertainty stated by the source.

As for `CC(C)CO` [2-methyl-1-propanol] + CCCCCl, the mass density (as a rule, mass per unit of volume) in data set [1] (x2 = 0) is reported as 797.84 ± 0.31 kg/m3.
With `CCCCN` [1-butanamine], the mass density in data set [2] stood at 734.65 ± 0.21 kg/m3.
Still for that read-out and setting: under `CCCCCl` [1-chlorobutane] stands 880.86 ± 0.15 kg/m3.
As for `CCCCCl` [1-chlorobutane] + CC(C)CO, the mass density in data set [1] (x1 = 0.037) was found to be 801.07 ± 0.3 kg/m3; in data set [1] (x1 = 0.0748), 804.35 ± 0.29 kg/m3; in data set [1] (x1 = 0.1521), 811.04 ± 0.28 kg/m3; in data set [1] (x1 = 0.2331), 817.97 ± 0.27 kg/m3; in data set [1] (x1 = 0.3472) it was 827.62 ± 0.25 kg/m3; in data set [1] (x1 = 0.4266) it was 834.27 ± 0.23 kg/m3. The mass density in data set [1] (x1 = 0.4911) is recorded as 839.59 ± 0.22 kg/m3; in data set [1] (x1 = 0.5817) it was 847.01 ± 0.21 kg/m3; in data set [1] (x1 = 0.6178), 849.95 ± 0.2 kg/m3; in data set [1] (x1 = 0.6855) it was 855.42 ± 0.19 kg/m3; in data set [1] (x1 = 0.7946) it was 864.22 ± 0.18 kg/m3; in data set [1] (x1 = 0.8885), 871.78 ± 0.17 kg/m3. Further, the mass density is 876.18 ± 0.16 kg/m3 in data set [1] (x1 = 0.9428) and 880.86 ± 0.15 kg/m3 in data set [1] (x1 = 1).
For `CCCCCl` [1-chlorobutane] + CCCCN, in data set [1] (x1 = 1), the mass density was 880.86 ± 0.15 kg/m3.
For the compound `CC(C)CO` [2-methyl-1-propanol] + CCCCN, the mass density in data set [1] (x2 = 0) is reported as 797.84 ± 0.31 kg/m3.
Take `CCCCN` [1-butanamine] + CC(C)CO: the mass density in data set [1] (x1 = 0.0482) is reported as 796.16 ± 0.3 kg/m3; in data set [1] (x1 = 0.0921), 794.54 ± 0.29 kg/m3; in data set [1] (x1 = 0.1855) it was 790.79 ± 0.28 kg/m3; in data set [1] (x1 = 0.2961), 785.62 ± 0.26 kg/m3; in data set [1] (x1 = 0.3674) it was 781.71 ± 0.25 kg/m3; in data set [1] (x1 = 0.4578), 776.31 ± 0.25 kg/m3. The mass density turned out to be 773.52 ± 0.24 kg/m3 in data set [1] (x1 = 0.5021); 770.4 ± 0.24 kg/m3 in data set [1] (x1 = 0.5502); 764.59 ± 0.23 kg/m3 in data set [1] (x1 = 0.6313); 757.45 ± 0.22 kg/m3 in data set [1] (x1 = 0.7237); 749.75 ± 0.22 kg/m3 in data set [1] (x1 = 0.8191); 742.18 ± 0.21 kg/m3 in data set [1] (x1 = 0.9098). For the same compound, the results for the mass density in data set [1] (x1 = 0.9418) and in data set [1] (x1 = 1) were 739.52 ± 0.21 kg/m3 and 734.65 ± 0.21 kg/m3, respectively.
Regarding `CCCCN` [1-butanamine] + CCCCCl, the mass density stood at 734.65 ± 0.21 kg/m3 in data set [1] (x2 = 0); 740.64 ± 0.21 kg/m3 in data set [1] (x2 = 0.0428); 745.29 ± 0.21 kg/m3 in data set [1] (x2 = 0.0758); 756.7 ± 0.2 kg/m3 in data set [1] (x2 = 0.1564); 766.61 ± 0.2 kg/m3 in data set [1] (x2 = 0.2259); 779.6 ± 0.19 kg/m3 in data set [1] (x2 = 0.3163). The mass density in data set [1] (x2 = 0.3765) is given as 788.3 ± 0.19 kg/m3; in data set [1] (x2 = 0.4412) it was 797.66 ± 0.19 kg/m3; in data set [1] (x2 = 0.4959), 805.59 ± 0.18 kg/m3; in data set [1] (x2 = 0.5804), 817.91 ± 0.18 kg/m3; in data set [1] (x2 = 0.6566) it was 829.09 ± 0.17 kg/m3; in data set [1] (x2 = 0.7272), 839.52 ± 0.17 kg/m3. Moreover, the mass density amounted to 847.26 ± 0.17 kg/m3 in data set [1] (x2 = 0.7794), 857.31 ± 0.16 kg/m3 in data set [1] (x2 = 0.8465), 864.25 ± 0.16 kg/m3 in data set [1] (x2 = 0.8923) and 872.12 ± 0.16 kg/m3 in data set [1] (x2 = 0.9437).
For the compound `CC(C)CO` [2-methyl-1-propanol], the mass density in data set [2] was determined as 797.84 ± 0.31 kg/m3.
